Measured values as given in ChEMBL document CHEMBL1671737, “Impact of recA on levofloxacin exposure-related resistance development” (2010).
Calls of active or inactive are those of the source. No cut-off for these calls is given here.

How the values were obtained:
Staphylococcus aureus [1] = assay: Antimicrobial activity against methicillin-resistant Staphylococcus aureus ASAU021 infected in in vitro hollow fiber infection model assessed as suppression of microbial resistance at AUC/MIC ratio of >32; assay type: functional, organism-based
Staphylococcus aureus [2] = assay: Bactericidal activity against recA-deficient Staphylococcus aureus ASAU022 assessed as induction of slow growth rate at 0.5 times MIC by time kill study; assay type: functional, organism-based
Staphylococcus aureus [3] = assay: Antimicrobial activity against recA-deficient Staphylococcus aureus ASAU022 infected in in vitro hollow fiber infection model assessed as suppression of microbial resistance at AUC/MIC ratio of >23; assay type: functional, organism-based
Staphylococcus aureus [4] = assay: Antimicrobial activity against recA-deficient Staphylococcus aureus ASAU022 infected in in vitro hollow fiber infection model assessed as suppression of microbial resistance at AUC/MIC ratio of 31; assay type: functional, organism-based
Staphylococcus aureus [5] = assay: Antimicrobial activity against methicillin-resistant Staphylococcus aureus ASAU021 after 24 hrs by modified broth macrodilution method; conditions: ASAU021, 24 h
Staphylococcus aureus [6] = assay: Antimicrobial activity against recA-deficient Staphylococcus aureus ASAU022 after 24 hrs by modified broth macrodilution method; conditions: ASAU022, 24 h
Staphylococcus aureus [7] = assay: Bactericidal activity against recA-deficient Staphylococcus aureus ASAU022 assessed as induction of increase bacterial kill rate at 2 times MIC by time kill study; assay type: functional, organism-based
Escherichia coli = assay: Antimicrobial activity against recA-deficient Escherichia coli MG1655 after 24 hrs by modified broth macrodilution method; assay type: functional; conditions: MG1655, 24 h

SMILES: C[C@H]1COc2c(N3CCN(C)CC3)c(F)cc3c(=O)c(C(=O)O)cn1c23.C[C@H]1COc2c(N3CCN(C)CC3)c(F)cc3c(=O)c(C(=O)O)cn1c23.O [LEVOFLOXACIN]
- Activity (Staphylococcus aureus [1]): Active
- inhibition (Staphylococcus aureus [2]): Active
- Activity (Staphylococcus aureus [3]): Active
- Activity (Staphylococcus aureus [4]): Active
- MIC (Staphylococcus aureus [5]): 1 µg/mL
- MIC (Staphylococcus aureus [6]): 0.25 µg/mL
- inhibition (Staphylococcus aureus [7]): Active
- MIC (Escherichia coli): 0.004 µg/mL
